Publication PMC3599558, “Profiling of hepatic clearance pathways of Pittsburgh compound B and human liver cytochrome p450 phenotyping” (EJNMMI Research, 2013)
“Also recorded” adds a separate entry of the source.

How the values were obtained:
serotonin 5HT1A receptor = test system: serotonin 5HT1A receptor; design: method as in PMID 17574977; details: inhibitor of CYP2E1; cited from earlier work
[1] = Human liver microsomal metabolism (no inhibitor); format: in vitro ADME; details: HLM incubations from phenotyping experiments, qualitative LC/MS
Procedure: (§1) After a 10 min preincubation at 37°C, the reaction was initiated by addition of 0.15 mM NADP and further incubated for either 15 or 60 min. The reactions were terminated by the addition of two volumes DMSO. Samples were subsequently centrifuged at 4,000 rpm for 10 min. From the resulting supernatant, 10 μL was analyzed by LC-MS/MS.
(§2) Quantification was performed on a TSQ-Vantage instrument (Thermofisher Scientific, Bremen, Germany), fitted with an electrospray ionization source. […] Elution was performed on a Waters XBridge C18 column (3 × 2.1 mm, 2.5 μm; Waters, Boston MA, USA). Solvents A (0.1% formic acid in water) and B (0.1% formic acid in acetonitrile) were used at a flow rate of 500 μL/min. […] The final ratio was held for a further 0.6 min and then reduced again to 5% B over 0.05 min. Data was processed using QuickQuan (Thermofisher Scientific, Bremen, Germany).
Qualitative high resolution LC/MS data was acquired on a Waters Premier hybrid quadrupole time-of-flight (QToF) mass spectrometer (Waters, Boston MA, USA) equipped with a liquid chromatography system, using a 10 min gradient method and an Acquity UPLC BEH C18 (2.1 × 100 mm, 1.7 μm) column (Waters, Boston MA). The QToF Premier operated with a cone voltage of 30 eV and collision energy of 30 eV. […] The final ratio was held for 2 min and then reduced again to 5% B over 1 min. […]

[2] = Human liver microsomal metabolism in the presence of cytochrome P450 diagnostic inhibitors; format: in vitro ADME; details: PiB 1.0 μM, 60 min
Procedure: as §1, §2
Qualitative high resolution LC/MS data was acquired on a Waters Premier hybrid quadrupole time-of-flight (QToF) mass spectrometer (Waters, Boston MA, USA) equipped with a liquid chromatography system, using a 10 min gradient method and an Acquity UPLC BEH C18 (2.1 × 100 mm, 1.7 μm) column (Waters, Boston MA). The QToF Premier operated with a cone voltage of 30 eV and collision energy of 30 eV. […] The final ratio was held for 2 min and then reduced again to 5% B over 1 min. Interpretation of data was performed with Metabolynx software (Waters, Boston, MA, USA).

rhCYP1A2 = target: T1, rhCYP1A2 (Homo sapiens, UniProt P05177); test: Incubation with recombinantly expressed CYP1A2; format: in vitro ADME
T1 construct: purchased BD Gentest (Woburn, MA, USA); host or cells: Baculovirus transfected insect cell system
T1 sequence (P05177 1-516): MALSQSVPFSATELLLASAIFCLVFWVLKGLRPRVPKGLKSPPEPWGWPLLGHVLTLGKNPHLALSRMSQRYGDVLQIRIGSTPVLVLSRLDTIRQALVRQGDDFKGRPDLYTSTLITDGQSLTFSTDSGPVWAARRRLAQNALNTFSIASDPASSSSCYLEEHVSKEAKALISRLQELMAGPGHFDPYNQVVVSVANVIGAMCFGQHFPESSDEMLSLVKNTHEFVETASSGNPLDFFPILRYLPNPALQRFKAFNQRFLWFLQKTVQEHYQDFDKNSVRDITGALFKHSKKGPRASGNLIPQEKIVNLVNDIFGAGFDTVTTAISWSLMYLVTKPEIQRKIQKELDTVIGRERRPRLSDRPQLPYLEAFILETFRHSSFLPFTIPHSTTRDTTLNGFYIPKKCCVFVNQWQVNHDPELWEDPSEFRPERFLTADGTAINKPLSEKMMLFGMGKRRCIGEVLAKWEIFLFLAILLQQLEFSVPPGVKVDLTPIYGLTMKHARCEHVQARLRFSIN
Procedure: as §2, with “After a 10 min preincubation at 37°C, the reaction was initiated by addition of 2.0 mM NADPH and incubated for 15 and 60 min. The reactions were terminated by the addition of two volumes of DMSO. Samples were subsequently centrifuged at 4,000 rpm for 10 min. From the resulting supernatant, 10 μL was analysed by liquid chromatography/tandem mass spectrometry (LC-MS/MS). […] Quantification” for “Quantification”

rhCYP 2C9 = target: T2, rhCYP 2C9 (Homo sapiens, UniProt P11712); test: Incubation with recombinantly expressed CYP2C9; format: in vitro ADME
T2 construct: purchased BD Gentest (Woburn, MA, USA); host or cells: Baculovirus transfected insect cell system
Procedure: as §2, with “After a 10 min preincubation at 37°C, the reaction was initiated by addition of 2.0 mM NADPH and incubated for 15 and 60 min. The reactions were terminated by the addition of two volumes of DMSO. Samples were subsequently centrifuged at 4,000 rpm for 10 min. From the resulting supernatant, 10 μL was analysed by liquid chromatography/tandem mass spectrometry (LC-MS/MS). […] Quantification” for “Quantification”

rhCYP 2D6 = target: T3, rhCYP 2D6 (Homo sapiens, UniProt P10635); test: Incubation with recombinantly expressed CYP2D6; format: in vitro ADME
T3 construct: purchased BD Gentest (Woburn, MA, USA); host or cells: Baculovirus transfected insect cell system
Procedure: as §2, with “After a 10 min preincubation at 37°C, the reaction was initiated by addition of 2.0 mM NADPH and incubated for 15 and 60 min. The reactions were terminated by the addition of two volumes of DMSO. Samples were subsequently centrifuged at 4,000 rpm for 10 min. From the resulting supernatant, 10 μL was analysed by liquid chromatography/tandem mass spectrometry (LC-MS/MS). […] Quantification” for “Quantification”

[3] = test system: rhCYPs 1A2, 2C9, 2C19, 2D6, and 3A4; test: Metabolite profiling of rhCYP incubations; format: in vitro ADME, human; details: qualitative LC/MS
Procedure: After a 10 min preincubation at 37°C, the reaction was initiated by addition of 2.0 mM NADPH and incubated for 15 and 60 min. The reactions were terminated by the addition of two volumes of DMSO. Samples were subsequently centrifuged at 4,000 rpm for 10 min. From the resulting supernatant, 10 μL was analysed by liquid chromatography/tandem mass spectrometry (LC-MS/MS). Control experiments were performed by substituting the active enzyme preparation by insect cell preparations containing no rhCYP.
Qualitative high resolution LC/MS data was acquired on a Waters Premier hybrid quadrupole time-of-flight (QToF) mass spectrometer (Waters, Boston MA, USA) equipped with a liquid chromatography system, using a 10 min gradient method and an Acquity UPLC BEH C18 (2.1 × 100 mm, 1.7 μm) column (Waters, Boston MA). The QToF Premier operated with a cone voltage of 30 eV and collision energy of 30 eV. The gradient employed was 95% solvent A (25 mM ammonium acetate, pH = 9) as the start condition followed by a linear ramp of organic phase concentration from 5% B (25 mM ammonium acetate/MeOH/acetonitrile 10/10/80) to 95% B over 6.5 min. The final ratio was held for 2 min and then reduced again to 5% B over 1 min. Interpretation of data was performed with Metabolynx software (Waters, Boston, MA, USA).

rhCYP 3A4 = target: T4, rhCYP 3A4 (Homo sapiens, UniProt P08684); test: Incubation with recombinantly expressed CYP3A4; format: in vitro ADME
T4 construct: purchased BD Gentest (Woburn, MA, USA); host or cells: Baculovirus transfected insect cell system
Procedure: as §2, with “After a 10 min preincubation at 37°C, the reaction was initiated by addition of 2.0 mM NADPH and incubated for 15 and 60 min. The reactions were terminated by the addition of two volumes of DMSO. Samples were subsequently centrifuged at 4,000 rpm for 10 min. From the resulting supernatant, 10 μL was analysed by liquid chromatography/tandem mass spectrometry (LC-MS/MS). […] Quantification” for “Quantification”

rhCYP 2C19 = target: T5, rhCYP 2C19 (Homo sapiens, UniProt P33261); test: Incubation with recombinantly expressed CYP2C19; format: in vitro ADME
T5 construct: purchased BD Gentest (Woburn, MA, USA); host or cells: Baculovirus transfected insect cell system
Procedure: as §2, with “After a 10 min preincubation at 37°C, the reaction was initiated by addition of 2.0 mM NADPH and incubated for 15 and 60 min. The reactions were terminated by the addition of two volumes of DMSO. Samples were subsequently centrifuged at 4,000 rpm for 10 min. From the resulting supernatant, 10 μL was analysed by liquid chromatography/tandem mass spectrometry (LC-MS/MS). […] Quantification” for “Quantification”

[4] = PiB 1.0 μM, rhCYP 100 pmol/mL, 15 and 60 min
[5] = scaled for approximate relative abundances of CYP isoforms in human liver [10]

T4 sequence (P08684 whole entry): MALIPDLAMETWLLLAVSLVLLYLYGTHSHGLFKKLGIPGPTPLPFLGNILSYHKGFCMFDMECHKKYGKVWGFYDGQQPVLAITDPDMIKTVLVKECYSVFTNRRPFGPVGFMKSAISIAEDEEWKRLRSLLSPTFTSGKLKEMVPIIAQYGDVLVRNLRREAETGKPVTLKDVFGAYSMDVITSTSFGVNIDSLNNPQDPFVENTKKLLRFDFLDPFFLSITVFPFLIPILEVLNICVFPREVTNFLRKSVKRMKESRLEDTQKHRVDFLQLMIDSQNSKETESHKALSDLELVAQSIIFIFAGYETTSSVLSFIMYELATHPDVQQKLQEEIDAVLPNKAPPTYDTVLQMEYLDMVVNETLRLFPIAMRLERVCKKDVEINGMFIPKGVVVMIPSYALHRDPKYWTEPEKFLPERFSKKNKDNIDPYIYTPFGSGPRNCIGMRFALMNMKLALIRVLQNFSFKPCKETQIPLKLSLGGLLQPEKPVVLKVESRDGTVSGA
T2 sequence (P11712 whole entry): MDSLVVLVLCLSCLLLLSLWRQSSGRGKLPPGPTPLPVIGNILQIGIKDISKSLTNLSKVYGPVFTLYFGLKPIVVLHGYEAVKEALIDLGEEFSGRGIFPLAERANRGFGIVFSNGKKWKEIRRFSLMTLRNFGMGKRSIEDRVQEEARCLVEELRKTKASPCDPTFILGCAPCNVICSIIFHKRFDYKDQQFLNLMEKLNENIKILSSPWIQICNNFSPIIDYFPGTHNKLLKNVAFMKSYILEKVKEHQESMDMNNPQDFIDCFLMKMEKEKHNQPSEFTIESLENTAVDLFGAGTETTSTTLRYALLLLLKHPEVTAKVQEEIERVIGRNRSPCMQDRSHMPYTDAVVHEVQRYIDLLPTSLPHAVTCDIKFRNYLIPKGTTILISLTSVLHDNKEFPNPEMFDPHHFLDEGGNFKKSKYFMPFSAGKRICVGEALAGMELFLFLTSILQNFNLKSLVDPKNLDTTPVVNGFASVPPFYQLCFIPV
T5 sequence (P33261 whole entry): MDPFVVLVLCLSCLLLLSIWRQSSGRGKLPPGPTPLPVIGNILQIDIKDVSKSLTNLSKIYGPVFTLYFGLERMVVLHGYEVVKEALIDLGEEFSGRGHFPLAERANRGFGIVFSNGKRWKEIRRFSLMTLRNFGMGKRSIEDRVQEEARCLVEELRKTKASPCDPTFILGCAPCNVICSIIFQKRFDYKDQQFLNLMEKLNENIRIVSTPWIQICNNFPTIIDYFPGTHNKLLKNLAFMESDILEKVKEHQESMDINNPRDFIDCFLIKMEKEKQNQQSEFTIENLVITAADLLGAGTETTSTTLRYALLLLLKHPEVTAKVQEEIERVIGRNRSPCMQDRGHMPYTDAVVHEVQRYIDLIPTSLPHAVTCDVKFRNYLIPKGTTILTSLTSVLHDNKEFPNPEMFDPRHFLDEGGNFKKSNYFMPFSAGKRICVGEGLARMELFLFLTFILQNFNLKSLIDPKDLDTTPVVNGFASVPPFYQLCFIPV
T3 sequence (P10635 whole entry): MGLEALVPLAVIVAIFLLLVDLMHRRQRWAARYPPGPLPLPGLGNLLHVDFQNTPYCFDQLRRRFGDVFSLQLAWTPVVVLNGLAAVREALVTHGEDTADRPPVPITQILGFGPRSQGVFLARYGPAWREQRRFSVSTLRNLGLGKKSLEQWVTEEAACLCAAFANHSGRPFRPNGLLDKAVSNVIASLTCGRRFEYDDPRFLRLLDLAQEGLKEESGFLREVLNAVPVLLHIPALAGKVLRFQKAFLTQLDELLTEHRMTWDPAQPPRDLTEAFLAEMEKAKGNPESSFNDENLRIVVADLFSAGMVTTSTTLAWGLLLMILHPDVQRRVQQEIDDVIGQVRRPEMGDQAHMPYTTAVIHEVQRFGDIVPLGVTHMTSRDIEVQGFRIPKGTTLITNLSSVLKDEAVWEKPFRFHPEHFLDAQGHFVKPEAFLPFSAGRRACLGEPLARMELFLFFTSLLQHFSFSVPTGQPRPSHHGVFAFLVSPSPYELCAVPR

SMILES	metabolism after pretreatment with disulfuram (serotonin 5HT1A receptor)	drug-related species detected in HLM [1]	change in HLM turnover with inhibitor of CYP1A2 ([2]; alpha-naphthoflavone 3 μM)	change in HLM turnover with inhibitor of CYP2C19 ([2]; benzylphenobarbital 1 μM)	change in HLM turnover with inhibitor of CYP3A4 ([2]; ketoconazole 1 μM)	change in HLM turnover with inhibitor of CYP2D6 ([2]; quinidine 3 μM)	change in HLM turnover with inhibitor of CYP2C9 ([2]; sulfaphenazole 10 μM)	observed turnover with rhCYP1A2 (rhCYP1A2; [4])	contribution of CYP1A2 to metabolism after scaling (rhCYP1A2; [5])	observed turnover with rhCYP2C9 (rhCYP 2C9; [4])	contribution of CYP2C9 to metabolism after scaling (rhCYP 2C9; [5])	observed turnover with rhCYP2D6 (rhCYP 2D6; [4])	contribution of CYP2D6 to metabolism after scaling (rhCYP 2D6; [5])	drug-related species observed in rhCYP incubations [3]	observed turnover with rhCYP3A4 (rhCYP 3A4; [4])	contribution of CYP3A4 to metabolism after scaling (rhCYP 3A4; [5])	observed turnover with rhCYP2C19 (rhCYP 2C19; [4])	contribution of CYP2C19 to metabolism after scaling (rhCYP 2C19; [5])
COc1ccccc1N1CCN(CCN(C(=O)C2CCC(F)CC2)c2ccccn2)CC1 (stereo not drawn) [FCWAY]	significantly reduced	–	–	–	–	–	–	–	–	–	–	–	–	–	–	–	–	–
CNc1ccc(-c2nc3ccc(O)cc3s2)cc1 [PiB]	–	desmethyl metabolite	significant reduction	reduction in turnover is also apparent	significant reduction	reduction in turnover is also apparent	reduction in turnover is also apparent	substrate; also recorded: high turnover	primarily metabolized	substrate	primarily metabolized	substrate	only minor contributions	desmethyl metabolite	substrate; also recorded: high turnover	primarily metabolized	substrate	only minor contributions
